Patent publication US12516365B2, “Biocide compositions compatible with enzyme biosensors and methods of use thereof” (priority 2019, dated 2026)
Counter-ions that a name gives are not always drawn.

How the values were obtained:
Creatinine Sensor = experiment: Screen of biocides/antibiotics for compatibility with the Creatinine Sensor (Creatinine Sensor Slope loss); assay type: biochemical; parameters: key: “Fail” indicates the compound inhibited Creatinine Sensor Slope; “Pass” indicates there was no significant effect on Creatinine Sensor Slope
Excerpt: In one embodiment, a biocide candidate may be injected into, for example, one PCS-B bag after about one week of cartridge use life, and then any changes in sensor slopes over the next week or two, especially any increase in the rate of slope decrease, may be observed. During this time, aqueous solutions with high substrate concentrations may be tested to ensure that enzymes are still able to convert all substrate to products in the allotted time (e.g., about one minute).
In one embodiment, multiple cartridges assembled with, for example, PCS-B bags containing a candidate biocide may be tested for a prolonged period of time (e.g., 20-30 days) that corresponds to the useful cartridge lifespan (which may vary depending upon the cartridge type tested). In this case the cartridge starts the hydration process, which generally lasts about 50 minutes, with the biocide already in the solution bag (e.g., PCS-B). […] Over the course of 3 weeks, in addition to running aqueous controls that have established acceptance ranges, whole human blood may also be tested in order to simulate normal customer use.
A variety of candidate molecules were screened as described above to determine whether they were compatible with the Creatinine Sensor, i.e. whether there was a significant effect on Creatinine Sensor Slope.

[1] = test system: ChemSTAT creatinine sensor (creatininase, creatinase and sarcosine oxidase); experiment: Creatinine and creatine sensor slopes over time with biocide in Process Control Solution (PCS); assay type: biochemical; conditions: for Creatinine and creatine slopes over time after addition to PCS: 20 mg/L added to PCS-B after stable slopes for more than one week
Experimental: FIGS. 2A-2B show plots of creatinine and creatine slopes over time in the presence of either MIT or polymyxin B, respectively. […] Stable slopes were first established for more than one week before 300 mg/L MIT (methyl isothiazolinone) or 20 mg/L polymyxin B was added to the Process Control Solution (PCS) B (e.g., PCS-B).
The present disclosure discovered that Polymyxin B and Polymyxin E (aka, Colistin Sulfate) were compatible with a ChemSTAT creatinine sensor that utilized two hydrolase class enzymes (e.g., creatininase and creatinase) and sarcosine oxidase to measure creatinine. When included in Process Control Solutions (PCS) at a concentration sufficient to kill microbes (e.g., bacteria, in particular gram negative rods including various strains of Pseudomonas), the slope of the sensor remained high enough over 21 days to continually allow accurate measurement of creatinine in human blood and aqueous control solutions even at the upper end of the linear range where reduced enzyme activity could result in low recovery of substrate.
MIT is the most common biocide used in the blood gas industry for microbial contamination, and is known to be compatible with oxidase class enzymes such as glucose oxidase and lactate oxidase.
Importantly, the creatinine slope performed equivalently with colistin in PCS bags (see FIG. 3, left) to cartridges with PCS bags protected only with gentamicin (see FIG. 3, right). In this plot, no bacterial contamination was observed on control or test biocide PCS bags nor was there any evidence of enzyme inhibition and therefore performance is similar.

| Molecule | Pass/Fail (Creatinine Sensor Slope Loss) (Creatinine Sensor) | Inhibition/inactivation of creatininase, creatinase and sarcosine oxidase [1] | further results |
| --- | --- | --- | --- |
| Oc1ccccc1-c1ccccc1 [2-phenyl phenol] | Fail | – | – |
| Oc1cccc2cccnc12 [8-hydroxyquinoline] | Fail | – | – |
| NCC[C@H](O)C(=O)N[C@@H]1C[C@H](N)[C@@H](O[C@H]2O[C@H](CN)[C@@H](O)[C@H](O)[C@H]2O)[C@H](O)[C@H]1O[C@H]1O[C@H](CO)[C@@H](O)[C@H](N)[C@H]1O [Amikacin sulfate] | Pass | – | – |
| O=c1[nH]sc2ccccc12 [BIT, benisothiazolinone] | Fail | irreversibly inhibited | – |
| CC1(C)S[C@@H]2[C@H](NC(=O)C(C(=O)O)c3ccccc3)C(=O)N2C1C(=O)O (some centres unmarked) [Carbenicillin disodium] | Pass | – | – |
| CC(C)(O/N=C(\C(=O)N[C@@H]1C(=O)N2C(C(=O)[O-])=C(C[n+]3ccccc3)CS[C@H]12)c1csc(N)n1)C(=O)O [Ceftazidime] | Pass | – | – |
| Cn1sc(Cl)cc1=O [Cl-MIT, chlorinatedmethyl- isonthiazolinone] | Fail | irreversibly inhibited | – |
| CC1(C)NC(=O)NC1=O [Dantogard Plus, dimethylhydantoin] | Fail | irreversibly inhibited | – |
| CNC1C(O)[C@@H](O[C@H]2C(N)C[C@H](N)C(O[C@H]3OC(C(C)N)CCC3N)C2O)OC[C@]1(C)O (some centres unmarked) [Gentamicin sulfate] | Pass | – | Creatinine slope performance over time in PCS ([1]; full use life of three weeks): maintained sufficient creatinine slope |
| C[C@H]1COc2c(N3CCN(C)CC3)c(F)cc3c(=O)c(C(=O)O)cn1c23 [Levofloxacin] | Pass | – | – |
| Cn1sc2ccccc2c1=O [MBIT, methylbenzisothiazolinone] | Fail | irreversibly inhibited | – |
| CCn1cc(C(=O)O)c(=O)c2cc(F)c(N3CCNCC3)cc21 [Norfloxacin] | Fail | irreversibly inhibited | – |
| CCCCNC(=O)OCC#CI [Omacide IPBC, iodopropynylbutylcarbamate] | Fail | irreversibly inhibited | – |
| CCN1CCN(C(=O)N[C@@H](C(=O)N[C@@H]2C(=O)N3C(C(=O)O)C(C)(C)S[C@H]23)c2ccccc2)C(=O)C1=O (some centres unmarked) [Piperacillin] | Pass | – | – |
| CN[C@@H]1[C@H](O)[C@H](NC)[C@H]2O[C@@]3(O)C(=O)C[C@@H](C)O[C@H]3O[C@@H]2[C@H]1O [Spectinomycin] | Pass | – | – |
| COc1cc(Cc2cnc(N)nc2N)cc(OC)c1OC [Trimethoprim] | Fail | irreversibly inhibited | – |
| Polymyxin B | Pass | – | Creatinine and creatine slopes over time after addition to PCS [1]: no effect; Creatinine and creatine slopes over time after addition to PCS ([1]; listed as polymyxin B): does not causes a rapid decay; Compatibility with ChemSTAT creatinine sensor ([1]; in PCS at a concentration sufficient to kill microbes, slope over 21 days): compatible |
| Streptomycin | Pass | – | – |
